Experimental findings from patent US11466010B2, “Toll-like receptor 8 (TLR8) specific antagonists and methods of making and uses thereof” (The Regents of the University of Colorado, a body corporate, priority 2017, dated 2022) are described below.

For assay [1], the system named is TLR8 downstream proteins (p65, p-IRAK4, TRAF3, TRIF, IRF3). The assay can be described thus: Immunoblotting of TLR downstream signaling proteins in THP-1 cells treated with R848. The class given is cell-based, human. On the procedure: Immunoblotting: THP-1 cells were seeded in 6-well plates with a density of 2×10^6 cells/well in RPMI 1640 medium supplemented with 10% FBS, 100 U/mL penicillin, 100 μg/mL streptomycin (PenStrep), 2 mM L-glutamine, and 0.05 mM 2-mercaptoethanol. THP-1 cells were treated with phorbol-12-myristate-13-acetate (PMA) (100 ng/mL) and incubated in humidified incubators containing 5% CO2 at 37° C. for 24 h. […] After incubation of 2 h, THP-1 cells were collected, nuclear protein fraction was extracted using NE-PER Nuclear and Cytoplasmic Extraction kit (Thermo Fisher Scientific). BCA assay was then used to determine protein concentration. Protein samples were loaded and run in 10% Tris-glycine SDS-PAGE, and then transferred onto a nitro-cellulose membrane (BioRad) using electroblotting. P65 (CST; 8242) (1:1000) was then used as primary antibody, and peroxidase-conjugated AffiniPure Goat Anti-Rabbit IgG (H+L) antibody (Jackson Immuno Research; 111-035-144) (1:10000) as secondary antibody, then blots were visualized using Thermo SuperSignal West Pico kit (Thermo Fisher Scientific). Lamin A/C (CST; 2032) were used as internal controls for nuclear fractions.
Next, the inventors carried out on-target validation for CU-CPT9a. […] By contrast, the expression of TRIF and IRF3 (cytoplasmic and nuclear) were only responsive to TLR4 and TLR3, independent of TLR8.
On the technique in general: A western blot detects proteins with antibodies after separation by electrophoresis.

The test system of assay [2] is TNF-α production in PBMCs from RA patients. The assay can be described thus: TNF-α level in PBMCs harvested from RA patients. The class given is cell-based, human. Conditions: PBMCs from RA patients and one AOSD patient; dose-dependent.

Regarding `COc1ccc2c(-c3ccc(O)c(C)c3)ccnc2c1` [Compound 11a, 2-Methyl-4-(7-methoxyl-4-quinolinyl)-phenol], in assay [1] (500 nM), the “nuclear NF-κB” value was “significant reduction”. The “R848-induced elevation of downstream protein levels (p65, p-IRAK4, TRAF3)” value in assay [1] (dose-dependent, 0, 5, 50, 500 nM, 2 h) is “reversed”. Besides, the “TNF-α level in patient PBMCs” value in assay [2] was “significantly suppressed”.
